# Assays:
# crabgrass = assay: Test B pre/postemergence crabgrass; assay type: in vivo, Digitaria sanguinalis
# Outline: (§1)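 Herbicidal effect was estimated by eye on a ten-point control scale after plants spent twelve to sixteen days in a greenhouse following soil or foliar treatment. Foliar sprays targeted plants at one to four leaves; all doses were formulated in a non-phytotoxic solvent with surfactant.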
# corn = assay: Test B pre/postemergence corn; assay type: in vivo, Zea mays
# Outline: as §1
# cocklebur = assay: Test B pre/postemergence cocklebur; assay type: in vivo, Xanthium strumarium
# Outline: as §1
# purple nutsedge = assay: Test B pre/postemergence purple nutsedge; assay type: in vivo, Cyperus rotundus
# Outline: as §1
# rice = assay: Test B flood test rice; assay type: in vivo, Oryza sativa; settings: for Rice plant response rating: scale of 0 to 10 where 0 is no effect and 10 is complete control; for Plant response rating, Rice: flood test species, listed under Postemergence, Rate 250 g/ha, scale 0 to 10, 0 is no effect, 10 is complete control
# Outline: (§2)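 Each value is a visual injury score relative to controls, with 10 meaning complete control and 0 no effect. Evaluation took place twelve to sixteen days after the 2-leaf-stage plants were treated and kept in the greenhouse.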
# smallflower flatsedge = assay: Test B flood test smallflower flatsedge; assay type: in vivo, Cyperus difformis; settings: for S. Flatsedge plant response rating: scale of 0 to 10 where 0 is no effect and 10 is complete control; for Plant response rating, S. Flatsedge: flood test species, listed under Postemergence, Rate 250 g/ha, scale 0 to 10, 0 is no effect, 10 is complete control
# Outline: as §2
# surinam grass = assay: Test B pre/postemergence surinam grass; assay type: in vivo, Brachiaria decumbens
# Outline: as §1
# wheat = assay: Test B pre/postemergence wheat; assay type: in vivo, Triticum aestivum
# Outline: as §1
# blackgrass = assay: Test B pre/postemergence blackgrass; assay type: in vivo, Alopecurus myosuroides
# Outline: as §1
# soybean = assay: Test B pre/postemergence soybean; assay type: in vivo, Glycine max
# Outline: as §1
# duck salad = assay: Test B flood test duck salad; assay type: in vivo, Heteranthera limosa; settings: for Plant response rating, Ducksalad: scale 0 to 10, 0 is no effect, 10 is complete control; for Ducksalad plant response rating: scale of 0 to 10 where 0 is no effect and 10 is complete control
# Outline: as §2
# bamyardgrass = assay: Test B flood test barnyardgrass; assay type: in vivo, Echinochloa crus-galli; settings: for Plant response rating, Barnyardgrass: scale 0 to 10, 0 is no effect, 10 is complete control; for Barnyardgrass plant response rating: scale of 0 to 10 where 0 is no effect and 10 is complete control
# Outline: as §2
# velvetleaf = assay: Test B pre/postemergence velvetleaf; assay type: in vivo, Abutilon theophrasti
# Outline: as §1
# giant foxtail = assay: Test B pre/postemergence giant foxtail; assay type: in vivo, Setaria faberii
# Outline: as §1
# sugar beet = assay: Test B pre/postemergence sugar beet; assay type: in vivo, Beta vulgaris
# Outline: as §1
# rape = assay: Test B pre/postemergence rape; assay type: in vivo, Brassica napus
# Outline: as §1
# [1] = Postemergence, Rate 250 g/ha, scale 0 to 10, 0 is no effect, 10 is complete control
# [2] = Postemergence, Rate 500 g/ha, scale of 0 to 10 where 0 is no effect and 10 is complete control
# [3] = Preemergence, Rate 62 g/ha, scale 0 to 10 (0 no effect, 10 complete control)
# [4] = Preemergence, Rate 125 g/ha, scale of 0 to 10 where 0 is no effect and 10 is complete control
# [5] = Preemergence, Rate 250 g/ha, scale 0 to 10, 0 is no effect, 10 is complete control
# [6] = Preemergence, Rate 500 g/ha, scale 0 to 10, 0 is no effect, 10 is complete control
# [7] = Rate 62 g/ha, Postemergence, scale of 0 to 10 where 0 is no effect and 10 is complete control
# [8] = Postemergence, Rate 125 g/ha, scale 0 to 10, 0 is no effect, 10 is complete control
# [9] = Postemergence section (flood test species), Rate 500 g/ha
# [10] = Rate 62 g/ha, Postemergence (flood test species)
# [11] = Preemergence, Rate 250 g/ha, scale of 0 to 10 where 0 is no effect and 10 is complete control
# [12] = Preemergence, Rate 500 g/ha, scale of 0 to 10 where 0 is no effect and 10 is complete control
# [13] = Postemergence (flood test), Rate 125 g/ha
# [14] = flood test species, listed under Postemergence, Rate 250 g/ha
smiles,measurement,setting,value
CC(=O)C(C)n1c(=O)on(C(=O)N(c2ccc(F)cc2)C(C)C)c1=O (stereo not shown) [Compound 400],"Plant response rating, Crabgrass",crabgrass; [1],6
same,Crabgrass plant response rating,crabgrass; [2],9
same,"Plant response rating, Crabgrass",crabgrass; [3],6
same,"Plant response rating, Crabgrass",crabgrass; [4],9
same,Crabgrass plant response rating,crabgrass; [5],10
same,Crabgrass plant response rating,crabgrass; [6],10
same,Crabgrass plant response rating,crabgrass; [7],0
same,"Plant response rating, Corn",corn; [8],0
same,"Plant response rating, Corn",corn; [1],0
same,Corn plant response rating,corn; [2],0
same,"Plant response rating, Corn",corn; [3],0
same,"Plant response rating, Corn",corn; [4],0
same,Corn plant response rating,corn; [5],2
same,Corn plant response rating,corn; [6],2
same,Corn plant response rating,corn; [7],0
same,"Plant response rating, Cocklebur",cocklebur; [8],0
same,"Plant response rating, Cocklebur",cocklebur; [1],0
same,Cocklebur plant response rating,cocklebur; [2],0
same,"Plant response rating, Cocklebur",cocklebur; [3],0
same,"Plant response rating, Cocklebur",cocklebur; [4],0
same,Cocklebur plant response rating,cocklebur; [5],0
same,Cocklebur plant response rating,cocklebur; [6],0
same,Cocklebur plant response rating,cocklebur; [7],0
same,"Plant response rating, Nutsedge",purple nutsedge; [1],0
same,Nutsedge plant response rating,purple nutsedge; [2],0
same,"Plant response rating, Nutsedge",purple nutsedge; [3],0
same,"Plant response rating, Nutsedge",purple nutsedge; [4],0
same,Nutsedge plant response rating,purple nutsedge; [5],0
same,Nutsedge plant response rating,purple nutsedge; [6],0
same,Nutsedge plant response rating,purple nutsedge; [7],0
same,Rice plant response rating,rice; [9],0
same,Rice plant response rating,rice; [10],0
same,"Plant response rating, Rice",rice,0
same,S. Flatsedge plant response rating,smallflower flatsedge; [9],0
same,S. Flatsedge plant response rating,smallflower flatsedge; [10],0
same,"Plant response rating, S. Flatsedge",smallflower flatsedge,0
same,"Plant response rating, B. signalgrass",surinam grass; [8],2
same,"Plant response rating, B. signalgrass",surinam grass; [1],3
same,B. signalgrass plant response rating,surinam grass; [2],4
same,"Plant response rating, B. signalgrass",surinam grass; [3],0
same,"Plant response rating, B. signalgrass",surinam grass; [4],0
same,B. signalgrass plant response rating,surinam grass; [11],2
same,B. signalgrass plant response rating,surinam grass; [12],4
same,B. signalgrass plant response rating,surinam grass; [7],0
same,Wheat plant response rating,wheat; [2],0
same,"Plant response rating, Wheat",wheat; [3],0
same,"Plant response rating, Wheat",wheat; [4],0
same,Wheat plant response rating,wheat; [5],0
same,Wheat plant response rating,wheat; [6],0
same,Wheat plant response rating,wheat; [7],0
same,"Plant response rating, Blackgrass",blackgrass; [8],4
same,"Plant response rating, Blackgrass",blackgrass; [1],8
same,Blackgrass plant response rating,blackgrass; [2],8
same,"Plant response rating, Blackgrass",blackgrass; [3],0
same,"Plant response rating, Blackgrass",blackgrass; [4],0
same,Blackgrass plant response rating,blackgrass; [11],0
same,Blackgrass plant response rating,blackgrass; [6],0
same,Blackgrass plant response rating,blackgrass; [7],0
same,"Plant response rating, Soybean",soybean; [1],4
same,Soybean plant response rating,soybean; [2],4
same,"Plant response rating, Soybean",soybean; [3],0
same,"Plant response rating, Soybean",soybean; [4],0
same,Soybean plant response rating,soybean; [5],0
same,Soybean plant response rating,soybean; [6],0
same,Soybean plant response rating,soybean; [7],1
same,"Plant response rating, Ducksalad",duck salad; [13],0
same,Ducksalad plant response rating,duck salad; [9],0
same,Ducksalad plant response rating,duck salad; [10],0
same,"Plant response rating, Ducksalad",duck salad; [14],0
same,"Plant response rating, Barnyardgrass",bamyardgrass; [13],0
same,Barnyardgrass plant response rating,bamyardgrass; [9],0
same,Barnyardgrass plant response rating,bamyardgrass; [10],0
same,"Plant response rating, Barnyardgrass",bamyardgrass; [14],0
same,"Plant response rating, Velvetleaf",velvetleaf; [1],0
same,Velvetleaf plant response rating,velvetleaf; [2],0
same,"Plant response rating, Velvetleaf",velvetleaf; [3],0
same,"Plant response rating, Velvetleaf",velvetleaf; [4],0
same,Velvetleaf plant response rating,velvetleaf; [5],0
same,Velvetleaf plant response rating,velvetleaf; [6],2
same,Velvetleaf plant response rating,velvetleaf; [7],0
same,"Plant response rating, Giant foxtail",giant foxtail; [8],8
same,"Plant response rating, Giant foxtail",giant foxtail; [1],9
same,Giant foxtail plant response rating,giant foxtail; [2],9
same,"Plant response rating, Giant foxtail",giant foxtail; [3],9
same,"Plant response rating, Giant foxtail",giant foxtail; [4],9
same,Giant foxtail plant response rating,giant foxtail; [5],10
same,Giant foxtail plant response rating,giant foxtail; [6],10
same,Giant foxtail plant response rating,giant foxtail; [7],5
same,"Plant response rating, Sugarbeets",sugar beet; [1],0
same,Sugarbeets plant response rating,sugar beet; [2],0
same,"Plant response rating, Sugarbeets",sugar beet; [3],0
same,"Plant response rating, Sugarbeets",sugar beet; [4],0
same,Sugarbeets plant response rating,sugar beet; [5],2
same,Sugarbeets plant response rating,sugar beet; [6],4
same,Sugarbeets plant response rating,sugar beet; [7],0
same,"Plant response rating, Rape",rape; [1],0
same,Rape plant response rating,rape; [2],0
same,"Plant response rating, Rape",rape; [3],0
same,"Plant response rating, Rape",rape; [4],0
same,Rape plant response rating,rape; [5],0
same,Rape plant response rating,rape; [6],0
same,Rape plant response rating,rape; [7],0
CCOC(=O)C=C(Cn1c(=O)on(C(=O)N(c2ccc(F)cc2)C(C)C)c1=O)OCC [Compound 396],"Plant response rating, Crabgrass",crabgrass; [8],0
same,"Plant response rating, Crabgrass",crabgrass; [1],2
same,Crabgrass plant response rating,crabgrass; [2],2
same,"Plant response rating, Crabgrass",crabgrass; [3],0
same,"Plant response rating, Crabgrass",crabgrass; [4],7
same,Crabgrass plant response rating,crabgrass; [5],10
same,Crabgrass plant response rating,crabgrass; [6],10
same,Crabgrass plant response rating,crabgrass; [7],0
same,"Plant response rating, Corn",corn; [8],0
same,"Plant response rating, Corn",corn; [1],0
same,Corn plant response rating,corn; [2],0
same,"Plant response rating, Corn",corn; [3],0
same,"Plant response rating, Corn",corn; [4],0
same,Corn plant response rating,corn; [5],0
same,Corn plant response rating,corn; [6],0
same,Corn plant response rating,corn; [7],0
same,"Plant response rating, Cocklebur",cocklebur; [8],0
same,"Plant response rating, Cocklebur",cocklebur; [1],0
same,Cocklebur plant response rating,cocklebur; [2],0
same,"Plant response rating, Cocklebur",cocklebur; [3],0
same,"Plant response rating, Cocklebur",cocklebur; [4],0
same,Cocklebur plant response rating,cocklebur; [5],0
same,Cocklebur plant response rating,cocklebur; [6],0
same,Cocklebur plant response rating,cocklebur; [7],0
same,"Plant response rating, Nutsedge",purple nutsedge; [1],0
same,Nutsedge plant response rating,purple nutsedge; [2],0
same,"Plant response rating, Nutsedge",purple nutsedge; [3],0
same,"Plant response rating, Nutsedge",purple nutsedge; [4],0
same,Nutsedge plant response rating,purple nutsedge; [5],0
same,Nutsedge plant response rating,purple nutsedge; [6],0
same,Nutsedge plant response rating,purple nutsedge; [7],0
same,Rice plant response rating,rice; [9],0
same,Rice plant response rating,rice; [10],0
same,"Plant response rating, Rice",rice,0
same,S. Flatsedge plant response rating,smallflower flatsedge; [9],0
same,S. Flatsedge plant response rating,smallflower flatsedge; [10],0
same,"Plant response rating, S. Flatsedge",smallflower flatsedge,0
same,"Plant response rating, B. signalgrass",surinam grass; [8],0
same,"Plant response rating, B. signalgrass",surinam grass; [1],0
same,B. signalgrass plant response rating,surinam grass; [2],0
same,"Plant response rating, B. signalgrass",surinam grass; [3],0
same,"Plant response rating, B. signalgrass",surinam grass; [4],0
same,B. signalgrass plant response rating,surinam grass; [11],3
same,B. signalgrass plant response rating,surinam grass; [12],5
same,B. signalgrass plant response rating,surinam grass; [7],0
same,Wheat plant response rating,wheat; [2],0
same,"Plant response rating, Wheat",wheat; [3],0
same,"Plant response rating, Wheat",wheat; [4],0
same,Wheat plant response rating,wheat; [5],0
same,Wheat plant response rating,wheat; [6],0
same,Wheat plant response rating,wheat; [7],0
same,"Plant response rating, Blackgrass",blackgrass; [8],2
same,"Plant response rating, Blackgrass",blackgrass; [1],3
same,Blackgrass plant response rating,blackgrass; [2],6
same,"Plant response rating, Blackgrass",blackgrass; [3],0
same,"Plant response rating, Blackgrass",blackgrass; [4],0
same,Blackgrass plant response rating,blackgrass; [11],3
same,Blackgrass plant response rating,blackgrass; [6],5
same,Blackgrass plant response rating,blackgrass; [7],0
same,"Plant response rating, Soybean",soybean; [1],3
same,Soybean plant response rating,soybean; [2],6
same,"Plant response rating, Soybean",soybean; [3],0
same,"Plant response rating, Soybean",soybean; [4],0
same,Soybean plant response rating,soybean; [5],0
same,Soybean plant response rating,soybean; [6],0
same,Soybean plant response rating,soybean; [7],2
same,"Plant response rating, Ducksalad",duck salad; [13],0
same,Ducksalad plant response rating,duck salad; [9],0
same,Ducksalad plant response rating,duck salad; [10],0
same,"Plant response rating, Ducksalad",duck salad; [14],0
same,"Plant response rating, Barnyardgrass",bamyardgrass; [13],0
same,Barnyardgrass plant response rating,bamyardgrass; [9],0
same,Barnyardgrass plant response rating,bamyardgrass; [10],0
same,"Plant response rating, Barnyardgrass",bamyardgrass; [14],0
same,"Plant response rating, Velvetleaf",velvetleaf; [1],0
same,Velvetleaf plant response rating,velvetleaf; [2],0
same,"Plant response rating, Velvetleaf",velvetleaf; [3],0
same,"Plant response rating, Velvetleaf",velvetleaf; [4],0
same,Velvetleaf plant response rating,velvetleaf; [5],0
same,Velvetleaf plant response rating,velvetleaf; [6],0
same,Velvetleaf plant response rating,velvetleaf; [7],0
same,"Plant response rating, Giant foxtail",giant foxtail; [8],0
same,"Plant response rating, Giant foxtail",giant foxtail; [1],2
same,Giant foxtail plant response rating,giant foxtail; [2],2
same,"Plant response rating, Giant foxtail",giant foxtail; [3],2
same,"Plant response rating, Giant foxtail",giant foxtail; [4],10
same,Giant foxtail plant response rating,giant foxtail; [5],10
same,Giant foxtail plant response rating,giant foxtail; [6],10
same,Giant foxtail plant response rating,giant foxtail; [7],0
same,"Plant response rating, Sugarbeets",sugar beet; [1],0
same,Sugarbeets plant response rating,sugar beet; [2],3
same,"Plant response rating, Sugarbeets",sugar beet; [3],0
same,"Plant response rating, Sugarbeets",sugar beet; [4],0
same,Sugarbeets plant response rating,sugar beet; [5],0
same,Sugarbeets plant response rating,sugar beet; [6],2
same,Sugarbeets plant response rating,sugar beet; [7],0
same,"Plant response rating, Rape",rape; [1],0
same,Rape plant response rating,rape; [2],6
same,"Plant response rating, Rape",rape; [3],0
same,"Plant response rating, Rape",rape; [4],0
same,Rape plant response rating,rape; [5],0
same,Rape plant response rating,rape; [6],0
same,Rape plant response rating,rape; [7],0
